# Positions count from the first letter of the chain named.
# What was measured:
# mouse TRPV3-6M = target: T1, mouse TRPV3-6M (Mus musculus, UniProt Q8K424, A560T/F522S/H523E/L557M/Q580E/W521Y); type: cell-based; conditions: for channel activation (current response): RTx 100 nM, 2-APB 3 mM, room temperature, ±60 mV
# T1 construct: expressed in transfected cells; host or cells: Xenopus laevis oocytes
# T1 sequence (Q8K424 1-791 W521Y/F522S/H523E/L557M/A560T/Q580E): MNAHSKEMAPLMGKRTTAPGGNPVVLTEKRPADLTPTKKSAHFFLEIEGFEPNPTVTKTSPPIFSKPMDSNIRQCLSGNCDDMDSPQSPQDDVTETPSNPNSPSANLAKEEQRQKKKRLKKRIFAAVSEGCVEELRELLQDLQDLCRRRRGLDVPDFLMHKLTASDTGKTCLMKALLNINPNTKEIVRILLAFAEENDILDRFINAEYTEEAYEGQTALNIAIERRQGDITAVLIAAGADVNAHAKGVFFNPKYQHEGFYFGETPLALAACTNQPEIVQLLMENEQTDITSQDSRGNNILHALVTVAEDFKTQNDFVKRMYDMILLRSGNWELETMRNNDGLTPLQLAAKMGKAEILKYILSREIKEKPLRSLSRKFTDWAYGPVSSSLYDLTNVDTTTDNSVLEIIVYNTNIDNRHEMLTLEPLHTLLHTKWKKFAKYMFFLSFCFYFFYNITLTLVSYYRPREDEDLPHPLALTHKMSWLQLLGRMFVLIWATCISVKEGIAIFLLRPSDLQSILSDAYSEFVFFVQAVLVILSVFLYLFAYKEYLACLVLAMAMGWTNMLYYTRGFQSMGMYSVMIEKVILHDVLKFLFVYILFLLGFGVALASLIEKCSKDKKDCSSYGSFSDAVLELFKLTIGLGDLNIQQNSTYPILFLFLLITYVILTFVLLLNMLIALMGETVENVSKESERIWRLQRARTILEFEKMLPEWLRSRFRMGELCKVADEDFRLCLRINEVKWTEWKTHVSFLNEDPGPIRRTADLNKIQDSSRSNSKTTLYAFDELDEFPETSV
# Procedure: (§1) All channel constructs were expressed in Xenopus laevis oocytes and studied using the two-electrode voltage clamp technique (TEVC) following 1–4 days of incubation after cRNA injection. The animal care and experimental procedures were performed in accordance with the Guide for the Care and Use of Laboratory Animals and were approved by the Animal Care and Use Committee of the National Institute of Neurological Disorders and Stroke (Animal protocol number 1253–17). Oocytes were removed surgically and incubated with agitation for 1 hr in a solution containing (in mM) 82.5 NaCl, 2.5 KCl, 1 MgCl2, 5 HEPES, pH 7.6 (with NaOH), and collagenase (2 mg/ml; Worthington Biochemical, Lakewood, NJ). Defolliculated oocytes were injected with cRNA for each of the constructs and incubated at 17°C in a solution containing (in mM) 96 NaCl, 2 KCl, 1 MgCl2, 1.8 CaCl2, 5 HEPES, pH 7.6 (with NaOH), and gentamicin (50 μg/ml, GIBCO-BRL, Gaithersburg, MD). Oocyte membrane voltage was controlled using an OC-725C oocyte clamp (Warner Instruments, Hamden, CT). Data were filtered at 1–3 kHz and digitized at 20 kHz using pClamp software (Molecular Devices, Sunnyvale, CA) and a Digidata 1440A digitizer (Axon Instruments). Microelectrode resistances were 0.1–1 MΩ when filled with 3 M KCl. For recording TRP channel currents, the external recording solution contained (in mM) 100 KCl, 10 HEPES, pH 7.6 (with KOH). Experiments were performed at room temperature (~22°C), except as indicated otherwise. […] Current time courses were obtained by stepping membrane voltage every 2 s from a holding potential of 0 mV to either −60 or +60 mV for 100 ms, and plotting the mean steady-state current at the end of each voltage step as a function of total recording time. I-V relations were obtained similarly, but voltage was stepped every 2 s to a different value, in 10 mV increments and starting at −60 mV.
# (§2) For temperature-activation experiments, calcium-activated chloride currents were minimized by using calcium-free solution containing 30 µM Caccinh-A01 and recording at negative membrane voltages. Heat stimuli were achieved by passing the external recording solution through glass capillary spirals immersed in a water bath maintained at about 70°C, and recordings were performed during constant perfusion with temperature measured using a thermistor (TA-29, Warner Instruments) located close to the cell. The thermistor was connected to the digitizer via a temperature controller (TC-324B, Warner Instruments) ([Zhang et al., 2018]). Oocytes injected with the various constructs were only studied if un-injected oocytes from the same batch contained a low density of endogenous temperature-sensitive currents at negative membrane voltages. For delivering cold stimuli, the external solution was passed through glass capillary spirals that were immersed in an ice bath. The mean I vs T relations were calculated by automatically binning each of the recordings in temperature intervals of 2°C, and averaging a single data point within each interval per cell. All data analysis was carried out using Igor Pro 6.3 (Wavemetrics, Portland, OR). Q10 values were obtained from Q10 = 10^10 x m, where m is the slope of linear fits to normalized log(current) vs temperature relations (not shown) over temperature intervals ~ 20–34°C or 38 – 45°C ([Zhang et al., 2018]).
# WT mouse TRPV3 = target: T2, WT mouse TRPV3 (Mus musculus, UniProt Q8K424); type: cell-based
# T2 construct: expressed in transfected cells; host or cells: Xenopus laevis oocytes (cRNA injection, pGEM-HE vector)
# T2 sequence (Q8K424 1-791): T1 sequence (Q8K424 1-791 W521Y/F522S/H523E/L557M/A560T/Q580E) with Y521W, S522F, E523H, M557L, T560A, E580Q
# Procedure: as §1, §2
SMILES,channel activation (current response) (mouse TRPV3-6M),"channel activation (current response) (WT mouse TRPV3; 2-APB 3 mM, room temperature)","s (slope) of Hill fit, 2-APB concentration-response (WT mouse TRPV3; -60 mV)","EC50 (WT mouse TRPV3; -60 mV, room temperature, Hill fit, read-out: apparent affinity (EC50) for activation by 2-APB) [µM]",channel activation by RTx after 2-APB pre-stimulation (mouse TRPV3-6M; RTx 100 nM after short stimulation with saturating 2-APB (3 mM)),"channel activation by RTx together with heating (mouse TRPV3-6M; RTx 100 nM with short heating pulse, temperatures slightly above room temperature)",channel activation by RTx after 2-APB pre-stimulation (WT mouse TRPV3; RTx 100 nM after short stimulation with 2-APB (3 mM)),channel activation by RTx together with heating (WT mouse TRPV3; RTx 100 nM with heating)
"NCCOB(c1ccccc1)c1ccccc1 [2-APB, 2-aminoethoxydiphenyl borate]",robust responses,robust responses,2.63,464 ± 12,,,,
"C=C(C)[C@]12C[C@@H](C)[C@@]34O[C@](Cc5ccccc5)(O[C@@H]1[C@@H]3C=C(COC(=O)Cc1ccc(O)c(OC)c1)C[C@]1(O)C(=O)C(C)=C[C@@H]41)O2 [RTx, resiniferatoxin]",insensitive,,,,robust activation,prominent activation,did not activate,did not elicit any response

# Source: article PMC6333442, “Conserved allosteric pathways for activation of TRPV3 revealed through engineering vanilloid-sensitivity” (eLife, 2019)
